What all share (test): growth of human tumour cells (NCI), 48 h
Test [1] relates to A498.
The test system of test [2] is ACHN.
Test [3] has as its system COLO 205.
Test [4] has as its system DU-145.
Test [5] concerns HCT-15.
The test system of test [6] is HL-60.
Test [7] relates to HOP-62.
Test [8] has as its system HT-29.
Test [9] relates to IGROV-1.
The subject of test [10] is K562.
The test system of test [11] is KM12.
Test [12] deals with MDA-MB-435.
The subject of test [13] is NCI-H460.
The subject of test [14] is OVCAR-3.
Test [15] relates to PC-3.
The subject of test [16] is RPMI-8226.
Test [17] relates to SF-268.
Test [18] relates to SF-295.
The test system of test [19] is SK-MEL-5.
Test [20] has as its system SW-620.

Each structure is given as a SMILES string.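 Protocol summary: plate cells (96-well), add compound at 5 concentrations, incubate 48 h, interpolate endpoints linearly. GI50 is the concentration that inhibits growth by half.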 Activity calls are given as the source filed them. No stated cut-off is given here; in the data, active = GI50 up to about 1.1 µM and inactive = higher.

With `N#Cc1c(O)c(/N=N/c2ccc(Cl)cc2)c(=O)n2c1[nH]c1ccccc12`, the GI50 was 37.6 µM (inactive) in [1]; 36.1 µM (inactive) in test [2]; 52.2 µM (inactive) in test [3]; 38.5 µM (inactive) in [4]; 28.1 µM in test [5]; 55.5 µM (inactive) in [6]. Further, the GI50 in test [7] was 17.5 µM (inactive); in test [8], 35.8 µM (inactive); in [9], 73.1 µM (inactive); in test [10], 32.6 µM (inactive); in test [11] it was 47 µM (inactive); in test [12] it was 35.8 µM (inactive). Further, the GI50 in test [13] was 45.6 µM (inactive); in test [14], 26.4 µM (inactive); in [15], 36.2 µM (inactive); in test [16], 21.5 µM (inactive); in test [17], 45 µM (inactive); in [18] it was 36.9 µM (inactive). For the same compound, the GI50 in test [19] was 53.7 µM (inactive); in test [20], 63.2 µM (inactive).

With `CC(=O)c1cc2ccccc2oc1=O` [3-ACETYLCOUMARIN], the GI50 in [1] was > 100 µM (inactive); in test [2], > 100 µM (inactive); in test [3] it was > 100 µM (inactive); in test [4] it was > 100 µM (inactive); in [5] it was above 100 µM; in [6], > 100 µM (inactive). For the same compound, the GI50 in test [7], in [8], in test [9], in test [10], in test [11] and in [12] was > 100 µM (inactive) throughout. The GI50 in test [13], in [14], in test [15], in test [16], in test [17] and in test [18] was > 100 µM (inactive) throughout. The GI50 in test [19] and in [20] was > 100 µM (inactive) each time.

In the case of `NNC(=O)c1c(Cl)c(Cl)c(Cl)c(Cl)c1-c1nc2ccccc2[nH]1`, the GI50 in test [1] was 15 µM (inactive); in test [2] it was 17.1 µM (inactive); in [3] it was 16.4 µM (inactive); in [4] it was 13.2 µM (inactive); in [5], 5.07 µM; in [6] it was 4.7 µM (inactive). In addition, the GI50 in [7] was 4.29 µM (inactive); in test [8], 14.8 µM (inactive); in test [9], 1.18 µM (inactive); in test [10], 3.25 µM (inactive); in test [11] it was 6.76 µM (inactive); in test [12], 2.12 µM (inactive). Moreover, the GI50 in test [13] was 11.8 µM (inactive); in test [14] it was 6.64 µM (inactive); in test [15], 16.6 µM (inactive); in [16], 7.4 µM (inactive); in test [17] it was 17.4 µM (inactive); in test [18], 4.91 µM (inactive). The results for the GI50 in [19] and in test [20] were 11.2 µM (inactive) and 10 µM (inactive), respectively.

Turning to `Cc1cn([C@@H]2O[C@H](CO[Si](C)(C)C(C)(C)C)[C@]3(O[C@H]3C(=O)NN)[C@H]2O[Si](C)(C)C(C)(C)C)c(=O)[nH]c1=O`, the GI50 in test [1] is 16.9 µM (inactive); in test [2], 5.86 µM (inactive); in [3], 2.64 µM (inactive); in [4] it was 6.31 µM (inactive); in [5], 4.32 µM; in test [6], 3.13 µM (inactive). The GI50 is 14.4 µM (inactive) in test [7]; 2.9 µM (inactive) in test [8]; 6.22 µM (inactive) in [9]; 2.75 µM (inactive) in test [10]; 7.67 µM (inactive) in test [11]; 7.11 µM (inactive) in [12]. The GI50 in test [13] is 4.31 µM (inactive); in test [14], 3.76 µM (inactive); in [15], 4.6 µM (inactive); in test [16], 4.29 µM (inactive); in [17], 3.59 µM (inactive); in test [18], 7.69 µM (inactive). Further, the GI50 is 10.4 µM (inactive) in [19] and 5.73 µM (inactive) in test [20].

As to `O=C(Nc1ccc(Cl)cc1)c1cc(S(=O)(=O)NC2=Nc3ccc(Cl)cc3C(c3ccccc3)N2)c(SSc2cc(Cl)c(C(=O)Nc3ccc(Cl)cc3)cc2S(=O)(=O)NC2=Nc3ccc(Cl)cc3C(c3ccccc3)N2)cc1Cl` (stereo not given), the GI50 is > 100 µM (inactive) in test [1]; > 100 µM (inactive) in [2]; > 100 µM (inactive) in [3]; > 100 µM (inactive) in test [4]; above 100 µM in test [5]; 3.37 µM (inactive) in [6]. The GI50 in test [7] is > 100 µM (inactive); in [8] it was > 100 µM (inactive); in [9] it was > 100 µM (inactive); in [10] it was 46.8 µM (inactive); in test [11] it was > 100 µM (inactive); in test [12], > 100 µM (inactive). Besides, the GI50 is > 100 µM (inactive) in test [13]; > 100 µM (inactive) in test [14]; > 100 µM (inactive) in test [15]; 97.1 µM (inactive) in test [16]; > 100 µM (inactive) in [17]; > 100 µM (inactive) in test [18]. For the same compound, the GI50 in test [19] was > 73.3 µM (inactive); in test [20], > 100 µM (inactive).

In the case of `C[C@]12C=CC(=O)C=C1CC[C@@H]1[C@@H]2CC[C@@]2(C)[C@H]1CC[C@]2(O)C(N)=O`, the GI50 in [1] is > 100 µM (inactive); in [2] it was > 100 µM (inactive); in test [3], > 100 µM (inactive); in [4] it was > 100 µM (inactive); in test [5], above 100 µM; in test [6], > 100 µM (inactive). In addition, the GI50 in test [7], in test [8], in [9], in [10], in test [11] and in [12] was > 100 µM (inactive) each time. In addition, the GI50 in test [13], in test [14], in [15], in [16], in [17] and in test [18] was > 100 µM (inactive) in each case. For the same compound, the GI50 in test [19] and in [20] was > 100 µM (inactive) each time.

In the case of `OC1(c2ccc3ccccc3c2)c2ccc3ccccc3c2C2=NCCN21` (stereo not given), the GI50 is > 100 µM (inactive) in [1]; > 100 µM (inactive) in test [2]; > 100 µM (inactive) in test [3]; > 100 µM (inactive) in test [4]; above 100 µM in [5]; > 100 µM (inactive) in [6]. Also, the GI50 in [7] is 18.5 µM (inactive); in test [8], > 100 µM (inactive); in test [9], > 100 µM (inactive); in [10], 45 µM (inactive); in test [11], > 100 µM (inactive); in [12], > 100 µM (inactive). Also, the GI50 was 23.6 µM (inactive) in [13]; > 100 µM (inactive) in test [14]; > 100 µM (inactive) in [15]; > 100 µM (inactive) in [16]; 54.3 µM (inactive) in [17]; 41.4 µM (inactive) in [18]. The GI50 was > 100 µM (inactive) in test [19] and 94.8 µM (inactive) in test [20].

Take `Cc1ccc2c3c1O[C@H]1c4nc5ccccc5cc4C[C@@]4(O)[C@@H](C2)N(CC2CC2)CC[C@]314`: the GI50 in test [1] is 16.5 µM (inactive); in test [2] it was 10.4 µM (inactive); in test [3] it was 5.2 µM (inactive); in test [4], 14.1 µM (inactive); in [5], 0.873 µM; in test [6], 9.23 µM (inactive). In addition, the GI50 in test [7] was 12.1 µM (inactive); in [8], 3.31 µM (inactive); in test [9] it was 17.5 µM (inactive); in [10], 3.31 µM (inactive); in test [11], 11.1 µM (inactive); in [12], 11.4 µM (inactive). Also, the GI50 is 20 µM (inactive) in [13]; 11.6 µM (inactive) in [14]; 3.95 µM (inactive) in [15]; 4.63 µM (inactive) in test [16]; 7.03 µM (inactive) in test [17]; 7.64 µM (inactive) in [18]. For the same compound, the GI50 in test [19] is 7.18 µM (inactive); in test [20], 4.29 µM (inactive).

For `COc1cc(-c2cc(=O)c3cc4c(=O)cc(-c5cc(OC)c(OC)c(OC)c5)oc4cc3o2)cc(OC)c1OC`, the GI50 was 24.7 µM (inactive) in test [1]; 25.1 µM (inactive) in test [2]; > 100 µM (inactive) in test [3]; 35.7 µM (inactive) in [4]; above 100 µM in test [5]; > 100 µM (inactive) in test [6]. For the same compound, the GI50 in test [7] is 12.6 µM (inactive); in test [8], > 100 µM (inactive); in [9], 22.7 µM (inactive); in test [10] it was > 41.9 µM (inactive); in test [11], > 100 µM (inactive); in [12], > 100 µM (inactive). For the same compound, the GI50 in test [13] was > 100 µM (inactive); in test [14], > 87.1 µM (inactive); in test [15], > 100 µM (inactive); in [16], > 100 µM (inactive); in [17], 23.5 µM (inactive); in test [18], 17.5 µM (inactive). In addition, the GI50 in test [19] and in [20] was > 100 µM (inactive) each time.

As for `Clc1ccc(CSC2=NCCN2)cc1Cl`, the GI50 in [1] is 21.3 µM (inactive); in test [2], 15 µM (inactive); in test [3] it was 17.7 µM (inactive); in test [4] it was 14.7 µM (inactive); in [5], 15 µM; in [6] it was 10.9 µM (inactive). Further, the GI50 was 23.4 µM (inactive) in test [7]; 14.2 µM (inactive) in test [8]; 18.9 µM (inactive) in test [9]; 13.5 µM (inactive) in [10]; 16.9 µM (inactive) in test [11]; 16 µM (inactive) in test [12]. Further, the GI50 in test [13] is 16.1 µM (inactive); in [14] it was 14.1 µM (inactive); in test [15] it was 10.4 µM (inactive); in test [16] it was 6.75 µM (inactive); in test [17], 14.9 µM (inactive); in [18] it was 36.8 µM (inactive). Besides, the GI50 was 12.7 µM (inactive) in test [19] and 16.2 µM (inactive) in [20].

The values above are taken from ChEMBL document CHEMBL1201862, “PubChem BioAssay data set” (2004).
